{
  "source": "patent US11597739B2",
  "about": "“Enhancing CD8+ T cells for adoptive T cell therapy by inhibiting PTPN1 (PTP1B) and PTPN2 (TC-PTP)” (The Royal Institution for the Advancement of …, priority 2017, dated 2023)",
  "tested_on": "mouse activated CD8 T cells",
  "assay": "Tcm differentiation and activation markers of stimulated mouse CD8 T cells (flow cytometry)",
  "format": "cell-based",
  "description": "8) Stimulation of Mouse CD8 T Cells\n2 μg/ml of 145-2C11 Hamster anti-Mouse CD3e in 300 μl of PBS are plated in 24 flat bottom well non-TC treated plates. Incubate O/N at 4° C. CD8 T cells from spleens of 8-12 weeks old OT-1 transgenic mice are isolated. 4×10^5 cells/ml are counted and resuspended in complete RPMI (RPMI+10% FBS heat inactivated at 55° C. for 45 min+Pen/Strep+55 μM β-Mercaptoethanol). The following 2× solutions are prepared:\na. Anti-Mouse CD28 10 μg/ml 40 U/ml rmIL-2. (40 ml)\n0.5 ml of 2× solution is added to the corresponding wells. Incubate for 4-8 days. Every 2 days add inhibitor to the corresponding concentration. When the cells are confluent, expand to 6 cm tissue culture plates adding 4 ml of complete RPMI+20 U/ml of IL-2 and in b add 10 μM K884.\nCalculate the specific cell lysis as follows: Specific cell lysis=((Sample−BF)/(AF−BF))×100 10) Flow Cytometry 1. Cell Activation • a. Wash cells with 1 ml of culture medium; • b. Centrifuge cells for 5 min at 300 g; • c. Resuspend cells in culture medium; • d. Prepare 2× solutions (negative control with only culture medium, Positive condition with 50 ng/mL of PMA and 500 ng/mL of lonomycin); • e. Plate 100 μL of cell suspension in 96 well plates (U-bottom); • f. Add 100 μL of 2× solutions in appropriate wells; • g. Incubate 4 hours at 37 C, 5% CO2. 2. Extracellular Staining • a. Record cell quantity transfers per tube; • b. Wash cells with 1 mL of PBS+2% FBS; • c. Centrifuge cells for 5 min at 300 g; • d. Empty tubes by inversion; • e. Add the antibodies for extracellular staining; • f. Incubate 20 min at 4° C.; • g. Wash cells with 1 mL of PBS+2% FBS; • h. Centrifuge cells for 5 min at 300 g; • i. Empty tubes by inversion; • j. Ressuspend cells in 100 μL fixation/permeabilisation buffer (eBioscience, #00-5223-56, 1 volume of concentrate buffer+3 volumes of diluent buffer) • k. Incubate 30 min at room temperature or overnight at 4° C. 3. Intracellular Staining • a. Wash cells with 1 mL of permeabilization buffer (eBioscience, #00-8333-56, dilution 1/10 in ddH2O); • b. Centrifuge cells for 5 min at 300 g; • c. […]",
  "data": [
    {"smiles": "CCOC(=O)c1cc2cc(C(F)(F)P(=O)(O)O)c(Br)cc2s1", "note": "[Ex. 1, ((6-BROMO-2-(ETHOXYCARBONYL)BENZO[B]THIOPHEN-5-YL)DIFLUOROMETHYL)PHOSPHONATE]", "values": [
      {"measurement": "expression of IL-2 receptor alpha (CD25), fluorescence", "setting": "activated mouse CD8 cells, Tcm gate, compared to untreated", "value": "increase on fluorescence closer to one order of magnitude"},
      {"measurement": "percentage of Tcm population relative to cells with IL-15 alone", "setting": "followed by 5 days incubation with recombinant murine IL-15", "value": "~2", "unit": "times"},
      {"measurement": "differentiation into Tcm cells (CD62Lhigh-CD27high)", "setting": "mouse activated CD8 T cells, compared to untreated cells", "value": "increased differentiation into Tcm cells at higher rates than the observed in untreated cells"}
    ]}
  ]
}
